Test results as given in ChEMBL document CHEMBL1140481, “Synthesis and identification of novel 11beta-aryl-4',5'-dihydrospiro[estra-4,9-diene-17beta,4'-oxazole] analogs with dissociated antiprogesterone activities” (Bioorg Med Chem Lett, 2007).

Columns and labels:
Progesterone receptor = molecular target: T1, Progesterone receptor (Homo sapiens, UniProt P06401); test: Antagonist activity at progesterone receptor expressed in human T47D cells assessed as inhibition of promegestone-induced alkaline phosphatase activity; format: functional, cell-based
T1 sequence (P06401 whole entry): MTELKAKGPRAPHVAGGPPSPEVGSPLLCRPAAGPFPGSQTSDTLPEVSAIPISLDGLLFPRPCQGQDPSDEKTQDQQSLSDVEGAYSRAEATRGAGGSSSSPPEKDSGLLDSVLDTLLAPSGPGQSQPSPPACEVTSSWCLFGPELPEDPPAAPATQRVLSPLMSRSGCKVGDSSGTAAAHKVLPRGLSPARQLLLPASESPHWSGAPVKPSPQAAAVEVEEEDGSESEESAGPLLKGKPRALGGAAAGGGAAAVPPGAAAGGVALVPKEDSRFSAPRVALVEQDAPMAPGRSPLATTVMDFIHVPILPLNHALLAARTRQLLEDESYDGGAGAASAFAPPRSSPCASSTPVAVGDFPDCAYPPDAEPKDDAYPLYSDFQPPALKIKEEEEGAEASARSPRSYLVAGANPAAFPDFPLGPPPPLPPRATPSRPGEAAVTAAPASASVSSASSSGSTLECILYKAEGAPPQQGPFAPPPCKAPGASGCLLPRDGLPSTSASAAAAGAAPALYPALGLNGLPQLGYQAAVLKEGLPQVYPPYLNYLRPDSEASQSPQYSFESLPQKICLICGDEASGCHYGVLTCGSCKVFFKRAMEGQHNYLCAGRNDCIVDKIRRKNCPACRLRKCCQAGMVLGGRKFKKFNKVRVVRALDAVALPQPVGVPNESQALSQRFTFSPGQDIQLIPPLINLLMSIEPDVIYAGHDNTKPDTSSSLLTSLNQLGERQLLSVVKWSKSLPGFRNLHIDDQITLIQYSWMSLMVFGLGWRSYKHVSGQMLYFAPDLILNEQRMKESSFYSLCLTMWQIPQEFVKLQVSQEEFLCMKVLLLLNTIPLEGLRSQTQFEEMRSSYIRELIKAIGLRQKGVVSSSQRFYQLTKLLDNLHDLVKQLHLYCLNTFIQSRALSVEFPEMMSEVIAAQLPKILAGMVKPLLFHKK

Glucocorticoid receptor = molecular target: T2, Glucocorticoid receptor (Homo sapiens, UniProt P04150); test: Antagonist activity at glucocorticoid receptor expressed in A549 cells assessed as inhibition of corticoid-induced gene transcription by luciferase reporter gene assay; format: functional, cell-based
T2 sequence (P04150 whole entry): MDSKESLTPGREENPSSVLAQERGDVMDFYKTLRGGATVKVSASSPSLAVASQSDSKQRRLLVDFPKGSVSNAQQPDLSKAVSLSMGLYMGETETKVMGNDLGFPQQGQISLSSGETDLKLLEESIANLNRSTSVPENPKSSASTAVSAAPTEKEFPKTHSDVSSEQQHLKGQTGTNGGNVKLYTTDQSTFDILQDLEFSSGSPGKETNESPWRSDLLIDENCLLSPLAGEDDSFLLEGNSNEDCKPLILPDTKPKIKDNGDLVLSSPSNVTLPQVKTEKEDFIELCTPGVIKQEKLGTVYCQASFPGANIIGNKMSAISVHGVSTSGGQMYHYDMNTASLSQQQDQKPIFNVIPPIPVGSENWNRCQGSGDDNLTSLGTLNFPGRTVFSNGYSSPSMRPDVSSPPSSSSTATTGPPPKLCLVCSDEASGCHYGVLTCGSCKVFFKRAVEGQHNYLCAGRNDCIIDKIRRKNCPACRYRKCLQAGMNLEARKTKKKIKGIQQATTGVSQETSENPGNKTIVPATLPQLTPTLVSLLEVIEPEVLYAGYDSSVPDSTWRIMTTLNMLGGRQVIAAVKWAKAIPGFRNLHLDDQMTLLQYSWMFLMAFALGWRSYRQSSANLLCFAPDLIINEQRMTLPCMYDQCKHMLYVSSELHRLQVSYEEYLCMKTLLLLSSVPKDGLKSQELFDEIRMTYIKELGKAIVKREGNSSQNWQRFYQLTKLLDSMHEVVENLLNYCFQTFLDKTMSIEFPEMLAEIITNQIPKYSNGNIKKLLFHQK

Homo sapiens = species on record: Homo sapiens; test: Ratio of IC50 for glucocorticoid receptor to IC50 for progesterone receptor

| Compound | IC50 (Progesterone receptor) [nM] | IC50 (Glucocorticoid receptor) [nM] | Ratio IC50 (Homo sapiens) |
| --- | --- | --- | --- |
| C=C1OC(CC)=N[C@]12CC[C@H]1[C@@H]3CCC4=CC(=O)CCC4=C3[C@@H](c3ccc(C(C)=O)cc3)C[C@@]12C | 0.34 | 210 | 620 |
| C=C1OC(C)=N[C@]12CC[C@H]1[C@@H]3CCC4=CC(=O)CCC4=C3[C@@H](c3ccc(N(C)C)cc3)C[C@@]12C | 0.63 | 82 | 130 |
| C=C1OC(CC)=N[C@]12CC[C@H]1[C@@H]3CCC4=CC(=O)CCC4=C3[C@@H](c3ccc(N(C)C)cc3)C[C@@]12C | 0.98 | 23 | 24 |
| C=C1OC(C)=N[C@]12CC[C@H]1[C@@H]3CCC4=CC(=O)CCC4=C3[C@@H](c3ccc(OC)c(F)c3)C[C@@]12C | 4.6 | 660 | 140 |
| C=C1OC=N[C@]12CC[C@H]1[C@@H]3CCC4=CC(=O)CCC4=C3[C@@H](c3ccc(C(C)=O)cc3)C[C@@]12C | 82 | 14000 | 171 |
| C=C1OC=N[C@]12CC[C@H]1[C@@H]3CCC4=CC(=O)CCC4=C3[C@@H](c3ccc(N(C)C)cc3)C[C@@]12C | 18 | 540 | 30 |
| C=C1OC(C)=N[C@]12CC[C@H]1[C@@H]3CCC4=CC(=O)CCC4=C3[C@@H](c3ccc(C(C)=O)cc3)C[C@@]12C | 0.59 | 460 | 780 |
| C=C1OC(CC)=N[C@]12CC[C@H]1[C@@H]3CCC4=CC(=O)CCC4=C3[C@@H](c3ccc(OC)c(F)c3)C[C@@]12C | 1 | > 10000 | > 10000 |
